According to patent US20240002397A1, “3-AMINO PYRROLIDINE AND PIPERIDINE MACROCYCLIC OREXIN RECEPTOR AGONISTS” (Merck Sharp & Dohme LLC, priority 2020, published 2024):

What follows are compounds tested against T1, human OX2R (Homo sapiens, UniProt O43614) (assay: IPOne (IP-1) orexin receptor agonist assay in CHO cells expressing human OX2R). Details: CHO, hOX2R IP-One; percentage of mean max effect of a reference compound at 1 uM with 100% activity.
T1 sequence (O43614 1-444): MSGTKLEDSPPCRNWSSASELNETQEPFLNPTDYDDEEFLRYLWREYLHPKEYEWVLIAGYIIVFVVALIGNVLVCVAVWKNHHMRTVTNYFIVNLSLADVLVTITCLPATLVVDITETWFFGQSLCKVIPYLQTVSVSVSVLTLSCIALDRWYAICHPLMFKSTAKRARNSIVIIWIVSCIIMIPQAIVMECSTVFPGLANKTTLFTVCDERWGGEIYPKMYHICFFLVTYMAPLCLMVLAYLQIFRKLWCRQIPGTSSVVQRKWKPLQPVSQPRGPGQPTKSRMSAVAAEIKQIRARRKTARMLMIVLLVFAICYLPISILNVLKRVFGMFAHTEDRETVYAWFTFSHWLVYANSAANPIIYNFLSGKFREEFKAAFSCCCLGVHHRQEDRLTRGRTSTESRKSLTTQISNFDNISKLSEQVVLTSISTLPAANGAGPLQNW
Description: In atypical experiment, the OX1 and OX2 receptor agonist activity is determined in accordance with the following general experimental method. Chinese hamster ovary (CHO) cells expressing human OX1R and/or the human OX2R were grown in Iscove's modified DMEM containing glutaMAX™, 1% G418, 100 U/mL penicillin, 100 μg/mL streptomycin and 10% heat-inactivated qualified fetal bovine serum (FBS). […] During this incubation, IP-one detection reagents were prepared (38:1:1 lysis buffer:D2:AB-cryptate reagents).
For each compound, data were fit to a four parameter logistic fit (ActivityBase software) and the EC50 was reported as the inflection point of the resulting curve.

Compound | Emax [%]
C[C@@H]1C[C@H](NS(C)(=O)=O)C2COC3CCC(CC3)c3cccc(n3)NCCCOC(=O)N21 (stereo partly drawn) [Example 90, N-((2^1S,2^4S,5^2R,5^3S,5^5R)-5^5-methyl-6-oxo-3,7-dioxa-11-aza-1(2,6)-pyridina-5(2,1)-pyrrolidina-2(1,4)-cyclohexanacycloundecaphane-5^3-yl)methanesulfonamide] | 101
COC[C@@H]1C[C@H](NS(C)(=O)=O)[C@@H]2COC3CCC(CC3)c3cccc(F)c3/C=C/OC(=O)N12 [Example 3, N-((2^1R,2^4R,5^2R,5^3S,5^5S,E)-1^3-fluoro-5^5-(methoxymethyl)-6-oxo-3,7-dioxa-5(2,1)-pyrrolidina-1(1,2)-benzena-2(1,4)-cyclohexanacyclonaphan-8-en-5^3-yl)methanesulfonamide] | 99.5
CN(C)S(=O)(=O)N[C@H]1CCN2C(=O)OCCCOc3cccc(c3)[C@H]3CC[C@H](CC3)OC[C@@H]12 [Example 16, N′-((2^1S,2^4S, 5^2R,5^3S)-6-oxo-3,7,11-trioxa-5(2,1)-pyrrolidina-1(1,3)-benzena-2(1,4)-cyclohexana-cyclounde-caphane-5^3-yl)-N,N-dimethyl-sulfamide] | 99.1
C[C@@H]1C[C@H](NS(C)(=O)=O)C2COC3CCC(CC3)c3cccc(n3)N(C)CCCOC(=O)N21 (stereo partly drawn) [Example 91, N-((2^1S,2^4S,5^2R, 5^3S,5^5R)-5^5,^11-dimethyl-6-oxo-3,7-dioxa-11-aza-1(2,6)-pyridina-5(2,1)-pyrrolidina-2(1,4)-cyclohexanacycloundecaphane-5^3-yl)methanesulfonamide] | 102
C[C@@H]1C[C@H](NS(C)(=O)=O)C2COC3CCC(CC3)c3cccc(c3)OCCOC(=O)N21 (stereo partly drawn) [Example 17, N-((2^1S,2^4S, 5^2R,5^3S,5^5R)-5^5-methyl-6-oxo-3,7,10-trioxa-5(2,1)-pyrrolidina-1(1,3)-benzena-2(1,4)-cyclohexana-cyclodecaphane-5^3-yl) methanesulfonamide] | 100
COC[C@@H]1C[C@H](NS(C)(=O)=O)C2COC3CCC(CC3)c3nc(ccc3C(F)(F)F)OCCOC(=O)N21 (stereo partly drawn) [Example 87, N-((2^1S,2^4S,5^2R,5^3S,5^5S)-5^5-(methoxymethyl)-6-oxo-1^3-(trifluoromethyl)-3,7,10-trioxa-1(2,6)-pyridina-5(2,1)-pyrrolidina-2(1,4)-cyclohexanacyclodecaphane-5^3-yl)methanesulfonamide] | 100
COC[C@@H]1C[C@H](NS(C)(=O)=O)C2COC3CCC(CC3)c3cc(C(F)(F)F)cc(n3)OCCOC(=O)N21 (stereo partly drawn) [Example 84, N-((2^1S,2^4S,5^2R,5^3S,5^5S)-5^5-(methoxymethyl)-6-oxo-1^4-(trifluoromethyl)-3,7,10-trioxa-1(2,6)-pyridina-5(2,1)-pyrrolidina-2(1,4)-cyclohexanacyclodecaphane-5^3-yl)methanesulfonamide] | 101
CN(C)S(=O)(=O)N[C@H]1CCCN2C(=O)OCCCOc3cccc(c3)C3CCC(CC3)OC[C@@H]12 [Example 25, N′-((2^1S,2^4S,5^2R,5^3S)-6-oxo-3,7,11-trioxa-5(2,1)-piperidina-1(1,3)-benzena-2(1,4)-cyclohexanacycloundecaphane-5^3-yl)-N,N-dimethyl-sulfamide] | 101
Cc1ccc2nc1C1CCC(CC1)OCC1[C@@H](NS(C)(=O)=O)C[C@@H](C)N1C(=O)OCCCO2 (stereo partly drawn) [Example 80, N-((2^1S,2^4S,5^2R,5^3S,5^5R)-1^3,5^5-dimethyl-6-oxo-3,7,11-trioxa-1(2,6)-pyridina-5(2,1)-pyrrolidina-2(1,4)-cyclohexanacycloundecaphane-5^3-yl)methanesulfonamide] | 99.4
C[C@@H]1C[C@H](NS(=O)(=O)N(C)C)[C@@H]2COC3CCC(CC3)c3cccc(c3)OCCCCC(=O)N12 [Example 10, N′-((2^1S,2^4S,5^2R,5^3S, 5^5R)-5^5-methyl-6-oxo-3,11-dioxa-5(2,1)-pyrrolidina-1(1,3)-benzena-2(1,4)-cyclohexanacycloundecaphane-5^3-yl)-N,N-dimethyl-sulfamide] | 101
CNC[C@@H]1C[C@H](NS(C)(=O)=O)C2COC3CCC(CC3)c3cc(C(F)F)cc(n3)OCCCOC(=O)N21 (stereo partly drawn) [Example 101, N-((2^1S,2^4S,5^2R,5^3S,5^5S)-1^4-(difluoromethyl)-5^5-((methylamino)methyl)-6-oxo-3,7,11-trioxa-1(2,6)-pyridina-5(2,1)-pyrrolidina-2(1,4)-cyclohexanacycloundecaphane-5^3-yl)methanesulfonamide] | 102
COc1cc2nc(c1)C1CCC(CC1)OCC1[C@@H](NS(=O)(=O)C(F)F)C[C@@H](C)N1C(=O)OCCO2 (stereo partly drawn) [Example 105, 1,1-difluoro-N-((2^1R,2^4R,5^2R,5^3S,5^5R)-14-methoxy-5^5-methyl-6-oxo-3,7,10-trioxa-1(2,6)-pyridina-5(2,1)-pyrrolidina-2(1,4)-cyclohex-anacyclodecaphane-5^3-yl)methanesulfonamide] | 99.7
C[C@@H]1C[C@H](NS(C)(=O)=O)C2COC3CCC(CC3)c3nc(ccc3C(F)(F)F)OCCCOC(=O)N21 (stereo partly drawn) [Example 69, N-((2^1S,2^4S,5^2R,5^3S,5^5R)-5^5-methyl-6-oxo-1^3-(trifluoromethyl)-3,7,11-trioxa-1(2,6)-pyridina-5(2,1)-pyrrolidina-2(1,4)-cyclohexanacycloundecaphane-5^3-yl)methanesulfonamide] | 94.7
CS(=O)(=O)N[C@H]1C[C@@H](CC(N)=O)N2C(=O)OCCCOc3cc(C(F)F)cc(n3)C3CCC(CC3)OCC12 (stereo partly drawn) [Example 102, 2-((2^1S,2^4S,5^2R,5^3S,5^5S)-1^4-(difluoromethyl)-5^3-(methylsulfonamido)-6-oxo-3,7,11-trioxa-1(2,6)-pyridina-5(2,1)-pyrrolidina-2(1,4)-cyclohexanacycloundecaphane-5^5-yl)acetamide] | 99.8
COc1cc2nc(c1)C1CCC(CC1)OC[C@H]1[C@@H](NS(C)(=O)=O)C[C@@H](C)N1C(=O)OCCCC2 [Example 111, N-((2^1S,2^4S,5^2R,5^3S,5^5R)-1^4-methoxy-5^5-methyl-6-oxo-3,7-dioxa-1(2,6)-pyridina-5(2,1)-pyrrolidina-2(1,4)-cyclohexanacycloundecaphane-5^3-yl)methanesulfonamide] | 99.6
C[C@@H]1C[C@H](NS(C)(=O)=O)C2CO[C@H]3CC=C(CC3)c3cc(F)cc(c3)OCCCOC(=O)N21 (stereo partly drawn) [Example 41] | 102
C[C@@H]1C[C@H](NS(C)(=O)=O)C2COC3CCC(CC3)c3ccc(F)c(n3)NCCCOC(=O)N21 (stereo partly drawn) [Example 93, N-((2^1S,2^4S,5^2R,5^3S,5^5R)-1^5-fluoro-5^5-methyl-6-oxo-3,7-dioxa-11-aza-1(2,6)-pyridina-5(2,1)-pyrrolidina-2(1,4)-cyclohexanacycloundecaphane-5^3-yl)methanesulfonamide] | 103
C[C@@H]1C[C@H](NS(C)(=O)=O)C2COC3CCC(CC3)c3nc(ccc3OC(F)(F)F)OCCOC(=O)N21 (stereo partly drawn) [Example 58, N-((2^1S,2^4S,5^2R,5^3S,5^5R)-5^5-methyl-6-oxo-1^3-(trifluoromethoxy)-3,7,10-trioxa-1(2,6)-pyridina-5(2,1)-pyrrolidina-2(1,4)-cyclohexanacyclodecaphane-5^3-yl)methanesulfonamide] | 102
C[C@@H]1C[C@H](NS(C)(=O)=O)C2CO[C@H]3CC=C(CC3)c3cc(F)cc(c3)OCCCCC(=O)N21 (stereo partly drawn) [Example 43, N-((2^1S,2^4S, 5^2R,5^3S,5^5R)-1^5-fluoro-5^5-methyl-6-oxo-3,11-dioxa-5(2,1)-pyrrolidina-1(1,3)-benzena-2(1,4)-cyclohexana-cyclounde-caphan-2^1-en-5^3-yl)methane-sulfonamide] | 102
COC[C@@H]1C[C@H](NS(C)(=O)=O)[C@@H]2COC3CCC(CC3)c3cccc(F)c3CCOC(=O)N12 [Example 6, N-((2^1R,2^4R,5^2R,5^3S, 5^5S)-1^3-fluoro-5^5-(methoxymethyl)-6-oxo-3,7-dioxa-5(2,1)-pyrrolidina-1(1,2)-benzena-2(1,4)-cyclo-hexanacyclonaphane-5^3-yl)methane sulfonamide] | 100
CS(=O)(=O)N[C@H]1CCCN2C(=O)CCCCOc3ccccc3[C@H]3CC[C@H](CC3)OC[C@@H]12 [Example 24, N-((2^1S,2^4S,5^2R,5^3S)-6-oxo-3,1′-dioxa-5(2,1)-piperidina-1(1,2)-benzena-2(1,4)-cyclohexanacycloundecaphane-5^3-yl)methanesulfonamide] | 99.2
C[C@@H]1C[C@H](NS(C)(=O)=O)C2COC3CCC(CC3)c3cc(C(F)(F)F)cc(n3)OCCOC(=O)N21 (stereo partly drawn) [Example 54, N-((2^1S,2^4S,5^2R,5^3S,5^5R)-5^5-methyl-6-oxo-1^4-(trifluoromethyl)-3,7,10-trioxa-1(2,6)-pyridina-5(2,1)-pyrrolidina-2(1,4)-cyclohexanacyclodecaphane-5^3-yl)methanesulfonamide] | 100
C[C@@H]1C[C@H](NS(C)(=O)=O)C2COC3CCC(CC3)c3cccc(c3F)OCCCOC(=O)N21 (stereo partly drawn) [Example 47, N-((2^1S,2^4S, 5^2R,5^3S,5^5R)-1^2-fluoro-5^5-methyl-6-oxo-3,7,11-trioxa-5(2,1)-pyrrolidina-1(1,3)-benzena-2(1,4)-cyclohexana-cyclounde-caphane-5^3-yl)methane-sulfonamide] | 102

Same assay, conditions: hOX2R IP-One; percentage of mean max effect of a reference compound at 1 uM with 100% activity

Compound | Emax (%)
N′-((2^1S,2^4S,5^2R,5^3S)-6-oxo-3,7-dioxa-5(2,1)-piperidina-1(1,2)-benzena-2(1,4)-cyclohexanacyclononaphane-5^3-yl)-N,N-dimethyl-sulfamide [Example 37] | 5.8
